Experimental data from article PMC10584170, “Machine learning-based phenotypic imaging to characterise the targetable biology of Plasmodium falciparum male gametocytes for the development of transmission-blocking antimalarials” (PLOS Pathogens, 2023).

Legend:
[1] = tested on: P. falciparum male gametocytes; assay: P. falciparum Dual Gamete Formation Assay (PfDGFA), male readout (exflagellation); format: cell-based, Plasmodium falciparum NF54; details: for % inhibition male (individual replicates) R1: replicate R1; for % inhibition male (individual replicates) R4: replicate R4; for Average inhibition male (%): average of replicates; for % inhibition male (individual replicates) R3: replicate R3; for Activity: hit = >50% inhibition in male or female readout in at least 3 replicates, 0 = no class assigned
Summary of the method: (§1)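 Male and female gamete formation were quantified by microscopy image analysis following 24 h incubation of mature NF54 gametocytes with compound and activation at 28°C with xanthurenic acid.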

[2] = tested on: P. falciparum female gametocytes; assay: P. falciparum Dual Gamete Formation Assay (PfDGFA), female readout (Pfs25-positive female gametes); format: cell-based, Plasmodium falciparum NF54; details: for % inhibition female (individual replicates) R1: replicate R1; for % inhibition female (individual replicates) R3: replicate R3; for % inhibition female (individual replicates) R4: replicate R4; for Average inhibition female (%): average of replicates
Summary of the method: as §1

[3] = PfDGFA at 2µM, 24h preincubation with gametocytes prior to induction of gametogenesis
[4] = PfDGFA at 2µM, 24h preincubation
[5] = 2µM, 24h preincubation with gametocytes prior to induction of gametogenesis
[6] = 2µM, 24h preincubation, hits selected on >50% inhibition in the male readout across replicates
[7] = 2µM, 24h preincubation, hits selected on >50% inhibition in the female readout across replicates
[8] = PfDGFA at 2µM, 24h preincubation with gametocytes
[9] = number of replicates with >50% inhibition in the male readout, 2µM
[10] = number of replicates with >50% inhibition in the female readout, 2µM
[11] = 2µM, 24h preincubation, number of replicates with >50% inhibition in the male readout
[12] = 2µM, 24h preincubation, number of replicates with >50% inhibition in the female readout

Structure (SMILES) | % inhibition male (individual replicates) R1 [1, 3] [%] | % inhibition male (individual replicates) R4 [1, 3] [%] | Average inhibition male (%) [1, 4] [%] | % inhibition female (individual replicates) R1 [2, 3] [%] | % inhibition female (individual replicates) R3 [2, 3] [%] | % inhibition female (individual replicates) R4 [2, 3] [%] | Average inhibition female (%) [2, 4] [%] | Average inhibition male (%) [1, 5] [%] | % inhibition male (individual replicates) R1 [1, 5] [%] | % inhibition male (individual replicates) R3 [1, 5] [%] | % inhibition male (individual replicates) R4 [1, 5] [%] | Average inhibition female (%) [2, 5] [%] | % inhibition female (individual replicates) R1 [2, 5] [%] | % inhibition female (individual replicates) R3 [2, 5] [%] | % inhibition female (individual replicates) R4 [2, 5] [%] | % inhibition male (individual replicates) R3 [1, 3] [%] | other results
C[C@@H](CNc1ccnc(Nc2ccc3[nH]c(=O)[nH]c3c2)n1)c1ccccc1 [TCMDC-136803] | -12.9 | -10.1 | -9.4 | 0.6 | -4.3 | 9.5 | 0.458 |  |  |  |  |  |  |  |  |  | 
Cc1cc(N2CCCN(CC3CCCCC3)CC2)nc(Nc2ccc(Br)cc2)n1 [TCMDC-137133] |  |  |  |  |  |  |  | -4.7 | -4.0 | -2.0 | -6.5 | 14.4 | 13.7 | 2.2 | 35.3 |  | HitlevelM [1, 6]: 0; Activity [1, 4]: 0; HitlevelF [2, 7]: 0
CCOc1cc(Cc2cnc(N)nc2N)cc(OCC)c1O [TCMDC-137181] | 23.6 | 11.2 | 22.7 | -0.02 | 1.9 | -15.6 | -3.9 |  |  |  |  |  |  |  |  | 21.9 | 
CNC(=O)C(NC(=O)c1ccccc1C(=O)OC)c1ccccc1 (centres unmarked) [TCMDC-137226] | 12.9 | -18.5 | -3.7 | 18.3 | -7.8 | -6.5 | 2.2 |  |  |  |  |  |  |  |  | -28.2 | 
COc1cc(Cc2cnc(N)nc2N)cc(OCCCCC2SC(=O)NC2=O)c1Br (centres unmarked) [TCMDC-137240] | 22.0 | -19.8 | 3.4 | 12.9 | 1.7 | -5.0 | 2.6 |  |  |  |  |  |  |  |  | 3.4 | 
Cc1nc2nc(N)nc(N)c2c(C)c1Cc1ccccc1Br.Cl [TCMDC-137242] | 34.5 | -12.5 | 16.6 | 10.1 | -11.3 | 2.1 | -2.4 |  |  |  |  |  |  |  |  | 1.0 | 
Cc1c(Cc2ccccc2Br)cnc2nc(N)nc(N)c12.Cl [TCMDC-137244] | 13.7 | 3.9 | 10.5 | 1.3 | -18.4 | -3.4 | -6.0 |  |  |  |  |  |  |  |  | 18.7 | 
CCC(CC)n1c(C)cc2c3c(N)nc(N)nc3ccc21 [TCMDC-137283] |  |  |  |  |  |  |  | 25.7 | 19.3 | 21.9 | 21.2 | 4.2 | -6.1 | 8.3 | 19.7 |  | HitlevelM [1, 6]: 0; Activity [1, 4]: 0; HitlevelF [2, 7]: 0
CCCc1cc(Cc2cnc(N)nc2N)cc(CCC)c1OCCCCC(=O)O [TCMDC-137293] |  |  |  |  |  |  |  | -0.757 | 18.6 | 1.6 | -35.8 | 8.1 | 3.0 | -4.5 | 42.6 |  | HitlevelM [1, 6]: 0; Activity [1, 4]: 0; HitlevelF [2, 7]: 0
CCN(CC)S(=O)(=O)n1ncc2c3c(N)nc(N)nc3ccc21.Cl [TCMDC-137302] | 16.7 | -41.8 | 0.1 | 5.9 | -12.1 | -12.9 | -8.3 |  |  |  |  |  |  |  |  | -8.5 | 
O=C1O[C@H](c2ccccc2)[C@H](c2ccccc2)N(C(=O)OCc2ccccc2)[C@H]1Cc1ccccc1C1CCCC1 [TCMDC-137303] |  |  |  |  |  |  |  | -2.7 | 16.1 |  | -23.7 | 4.6 | 6.2 | -0.36 | 6.0 |  | HitlevelM [1, 6]: 0; Activity [1, 4]: 0; HitlevelF [2, 7]: 0
CCc1cc2c3c(N)nc(N)nc3ccc2n1C(C)(C)C [TCMDC-137306] | 25.5 | 15.6 | 21.0 | -1.8 | -28.9 | 1.8 | -7.8 |  |  |  |  |  |  |  |  | 27.4 | 
CC(C)n1c(C(C)(C)C)cc2c3c(N)nc(N)nc3ccc21 [TCMDC-137311] |  |  |  |  |  |  |  |  |  |  |  |  |  |  |  |  | Average inhibition male (%) [1, 8]: 66.3%; % inhibition male (individual replicates) R1 [1, 8]: 58.8%; % inhibition male (individual replicates) R3 [1, 8]: 70.2%; % inhibition male (individual replicates) R4 [1, 8]: 54.6%; HitlevelM [1, 9]: 4; Average inhibition female (%) [2, 8]: -0.8%; % inhibition female (individual replicates) R1 [2, 8]: -8.1%; % inhibition female (individual replicates) R3 [2, 8]: 21.9%; % inhibition female (individual replicates) R4 [2, 8]: -9.1%; HitlevelF [2, 10]: 0
COc1ccc2c(c1CCNCCCCNCCc1c(OC)ccc3c1CCCC3)CCCC2.CS(=O)(=O)O [TCMDC-137324] |  |  |  |  |  |  |  |  |  |  |  |  |  |  |  |  | Average inhibition male (%) [1, 8]: 81.7%; % inhibition male (individual replicates) R1 [1, 8]: 91.2%; % inhibition male (individual replicates) R3 [1, 8]: 86.5%; % inhibition male (individual replicates) R4 [1, 8]: 98.0%; HitlevelM [1, 9]: 4; Average inhibition female (%) [2, 8]: 79.4%; % inhibition female (individual replicates) R1 [2, 8]: 79.9%; % inhibition female (individual replicates) R3 [2, 8]: 84.0%; % inhibition female (individual replicates) R4 [2, 8]: 85.5%; HitlevelF [2, 10]: 4
CC(C(=O)OCCOCn1cnc2c(=O)[nH]c(N)nc21)N(C)C(=O)OC(C)(C)C (centres unmarked) [TCMDC-137343] | 2.6 | -43.6 | -14.6 | 1.2 | -8.6 | 4.1 | -0.55 |  |  |  |  |  |  |  |  |  | 
Cl.c1ccc2c(Nc3ccc(Cc4ccc(Nc5c6ccccc6nc6ccccc56)cc4)cc3)c3ccccc3nc2c1 [TCMDC-137354] |  |  |  |  |  |  |  | 52.9 | 49.4 | 55.5 | 71.3 | 87.8 | 83.3 | 91.0 | 96.5 |  | HitlevelM [1, 11]: 2; HitlevelF [2, 12]: 4
Cl.c1ccc2c(Nc3ccc(OCCOCCOc4ccc(Nc5c6ccccc6nc6ccccc56)cc4)cc3)c3ccccc3nc2c1 [TCMDC-137355] |  |  |  |  |  |  |  | 37.2 | 36.9 | -1.4 | 40.2 | 29.1 | 27.7 | 5.6 | 8.9 |  | HitlevelM [1, 11]: 1; HitlevelF [2, 12]: 1
COc1cc(Cc2cnc(N)nc2N)cc(OCCCC(=O)O)c1OC [TCMDC-137359] |  |  |  |  |  |  |  | 4.4 | 4.7 | 7.0 | 5.5 | 3.8 | 8.3 | -22.8 | 31.0 |  | HitlevelM [1, 6]: 0; Activity [1, 4]: 0; HitlevelF [2, 7]: 0
